# Test results taken from paper PMC6673703, “14-3-3 signal adaptor and scaffold proteins mediate GPCR trafficking” (Scientific Reports, 2019).
# pEC50: −log10 of the molar value.
# Molecular target: T1, sphingosine-1-phosphate receptor 1 (S1PR1) (Homo sapiens, UniProt P21453)
# T1 construct: full-length, C-terminal TEV fusion
# Test: LinkLight S1PR1/β-arrestin interaction assay in HEK293 cells
# Assay type: cell-based
# T1 sequence (P21453 whole entry, the tested form may be a part): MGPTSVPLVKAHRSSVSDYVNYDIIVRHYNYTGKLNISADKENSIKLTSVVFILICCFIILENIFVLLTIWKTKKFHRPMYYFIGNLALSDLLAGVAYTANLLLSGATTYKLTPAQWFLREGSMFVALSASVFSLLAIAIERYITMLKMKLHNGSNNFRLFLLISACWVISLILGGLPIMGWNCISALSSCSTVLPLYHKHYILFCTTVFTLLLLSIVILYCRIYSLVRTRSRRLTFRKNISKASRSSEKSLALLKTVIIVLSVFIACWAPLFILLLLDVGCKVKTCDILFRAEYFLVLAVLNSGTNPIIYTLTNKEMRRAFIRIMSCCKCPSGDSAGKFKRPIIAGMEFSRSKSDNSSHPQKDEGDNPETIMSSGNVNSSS
# T1 sequence (P32121 whole entry partner, the tested form may be a part): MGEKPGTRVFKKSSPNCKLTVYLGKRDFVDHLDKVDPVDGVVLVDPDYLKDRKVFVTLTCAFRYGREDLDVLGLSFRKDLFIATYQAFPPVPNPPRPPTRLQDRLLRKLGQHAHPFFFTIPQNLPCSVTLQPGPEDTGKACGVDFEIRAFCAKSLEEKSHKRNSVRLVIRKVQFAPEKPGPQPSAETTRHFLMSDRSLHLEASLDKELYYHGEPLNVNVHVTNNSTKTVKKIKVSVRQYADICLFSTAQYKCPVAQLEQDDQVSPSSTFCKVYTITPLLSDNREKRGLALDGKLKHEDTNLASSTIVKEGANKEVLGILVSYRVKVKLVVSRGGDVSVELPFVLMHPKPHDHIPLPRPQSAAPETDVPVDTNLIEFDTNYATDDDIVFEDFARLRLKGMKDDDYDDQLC
compound,measurement,value
CCCCCCCCCCCCC/C=C/[C@@H](O)[C@@H](N)COP(=O)(O)O [S1P],pEC50,6.89
